This note sets out measurements from US20240197685A1, “SELECTIVE ANGIOTENSIN II RECEPTOR LIGANDS” (priority 2021, published 2024).

Like-named read-outs stand apart in the source and are kept apart here.

Data set [1] can be described thus: Metabolic stability in pooled human liver microsomes. As to conditions: human, pooled human liver microsomes, human liver microsomes 0.5 mg/mL, test compound 1 μM, 37° C. It is filed as in vitro ADME. In general terms: Liver microsomes are a subcellular fraction often used to study metabolism.
The target of data set [2] is T1, human recombinant AT2 receptor (Homo sapiens, UniProt P50052).
T1 construct: Eurofins protocol ITEM26
T1 sequence (P50052 1-363): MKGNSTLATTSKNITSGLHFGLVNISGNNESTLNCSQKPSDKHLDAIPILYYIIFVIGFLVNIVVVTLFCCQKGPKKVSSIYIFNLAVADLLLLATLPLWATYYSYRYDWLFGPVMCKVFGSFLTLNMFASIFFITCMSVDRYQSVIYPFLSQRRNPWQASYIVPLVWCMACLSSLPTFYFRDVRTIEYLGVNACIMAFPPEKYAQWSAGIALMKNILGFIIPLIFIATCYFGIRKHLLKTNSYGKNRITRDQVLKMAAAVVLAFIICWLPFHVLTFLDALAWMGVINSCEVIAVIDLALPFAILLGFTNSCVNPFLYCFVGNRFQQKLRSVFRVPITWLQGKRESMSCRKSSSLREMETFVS
The data set is described as follows: Binding to AT2 receptor, radiometric scintillation assay (Eurofins). Particulars: single run; 1, 10, 100 and 1000 nM; ligand 125I CGP 42112A; read-out: AT2 GraFit IC50.

The target of data set [3] is T2, human recombinant AT1 receptor (Homo sapiens, UniProt P30556).
T2 construct: Eurofins protocol ITEM24
T2 sequence (P30556 1-359): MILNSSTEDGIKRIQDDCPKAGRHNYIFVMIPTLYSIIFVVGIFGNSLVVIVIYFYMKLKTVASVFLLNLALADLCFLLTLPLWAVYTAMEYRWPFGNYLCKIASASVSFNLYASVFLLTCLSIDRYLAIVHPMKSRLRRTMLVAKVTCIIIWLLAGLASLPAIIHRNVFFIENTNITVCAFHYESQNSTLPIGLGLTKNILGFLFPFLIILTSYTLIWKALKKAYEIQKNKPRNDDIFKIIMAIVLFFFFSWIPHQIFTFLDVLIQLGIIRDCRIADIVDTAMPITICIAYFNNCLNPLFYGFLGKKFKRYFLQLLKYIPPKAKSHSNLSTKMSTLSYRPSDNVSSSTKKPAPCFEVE
The data set is described as follows: Binding to AT1 receptor, radiometric scintillation assay (Eurofins). As to conditions: single run; 1 and 10 μM; ligand 125I(sar1,Ile8)-AT-II.

For another data set, the target named is T3, CYP1A (Homo sapiens, UniProt P05177).
T3 construct: tissue Eurofins protocol ITEMG232; host or cells: human liver microsomes
T3 sequence (P05177 2-516 limits assumed): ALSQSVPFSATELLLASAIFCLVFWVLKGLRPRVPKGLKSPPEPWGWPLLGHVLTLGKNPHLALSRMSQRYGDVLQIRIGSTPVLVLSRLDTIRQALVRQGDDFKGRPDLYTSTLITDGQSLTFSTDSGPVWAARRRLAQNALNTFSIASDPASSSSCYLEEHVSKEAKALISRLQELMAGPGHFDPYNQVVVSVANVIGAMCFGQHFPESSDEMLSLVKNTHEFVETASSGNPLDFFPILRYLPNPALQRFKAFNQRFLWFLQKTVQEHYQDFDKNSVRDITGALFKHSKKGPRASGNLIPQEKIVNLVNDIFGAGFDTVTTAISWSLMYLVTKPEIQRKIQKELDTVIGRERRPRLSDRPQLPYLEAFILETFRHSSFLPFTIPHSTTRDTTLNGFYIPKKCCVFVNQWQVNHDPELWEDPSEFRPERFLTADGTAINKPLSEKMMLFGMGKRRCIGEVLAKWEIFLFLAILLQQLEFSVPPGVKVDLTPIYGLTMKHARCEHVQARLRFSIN
As to the kind of experiment: CYP inhibition, human liver microsomes. It counts as in vitro ADME. Particulars: probe phenacetin, substrate phenacetin, read-out: CYP1A Inh %.

Another data set has as its target T4, CYP2B6 (Homo sapiens, UniProt P20813).
T4 construct: tissue Eurofins protocol ITEMG232; host or cells: human liver microsomes
T4 sequence (P20813 1-491): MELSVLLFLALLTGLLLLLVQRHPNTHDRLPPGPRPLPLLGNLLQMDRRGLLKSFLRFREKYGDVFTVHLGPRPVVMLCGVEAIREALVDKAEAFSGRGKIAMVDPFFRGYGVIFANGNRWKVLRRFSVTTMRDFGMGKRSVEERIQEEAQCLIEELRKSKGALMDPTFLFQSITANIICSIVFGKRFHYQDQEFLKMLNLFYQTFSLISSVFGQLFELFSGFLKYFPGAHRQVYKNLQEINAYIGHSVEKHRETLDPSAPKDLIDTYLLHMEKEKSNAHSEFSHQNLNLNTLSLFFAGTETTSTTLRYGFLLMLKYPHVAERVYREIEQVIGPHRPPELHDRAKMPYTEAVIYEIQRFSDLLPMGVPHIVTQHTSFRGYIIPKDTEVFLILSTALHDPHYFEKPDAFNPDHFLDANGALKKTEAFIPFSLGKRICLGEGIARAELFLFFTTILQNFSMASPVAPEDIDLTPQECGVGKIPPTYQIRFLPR
As to the kind of experiment: CYP inhibition, human liver microsomes. It is filed as in vitro ADME. As to conditions: probe bupropion, substrate bupropion, read-out: CYP2B6 Inh %.

In the next data set the target is T5, CYP2C19 (Homo sapiens, UniProt P33261).
T5 construct: tissue Eurofins protocol ITEMG232; host or cells: human liver microsomes
As to the kind of experiment: CYP inhibition, human liver microsomes. It counts as in vitro ADME. Particulars: probe omeprazole, substrate omeprazole, read-out: CYP2C19 Inh %.

A further data set has as its target T6, CYP2C8 (Homo sapiens, UniProt P10632).
T6 construct: tissue Eurofins protocol ITEMG232; host or cells: human liver microsomes
T6 sequence (P10632 1-490): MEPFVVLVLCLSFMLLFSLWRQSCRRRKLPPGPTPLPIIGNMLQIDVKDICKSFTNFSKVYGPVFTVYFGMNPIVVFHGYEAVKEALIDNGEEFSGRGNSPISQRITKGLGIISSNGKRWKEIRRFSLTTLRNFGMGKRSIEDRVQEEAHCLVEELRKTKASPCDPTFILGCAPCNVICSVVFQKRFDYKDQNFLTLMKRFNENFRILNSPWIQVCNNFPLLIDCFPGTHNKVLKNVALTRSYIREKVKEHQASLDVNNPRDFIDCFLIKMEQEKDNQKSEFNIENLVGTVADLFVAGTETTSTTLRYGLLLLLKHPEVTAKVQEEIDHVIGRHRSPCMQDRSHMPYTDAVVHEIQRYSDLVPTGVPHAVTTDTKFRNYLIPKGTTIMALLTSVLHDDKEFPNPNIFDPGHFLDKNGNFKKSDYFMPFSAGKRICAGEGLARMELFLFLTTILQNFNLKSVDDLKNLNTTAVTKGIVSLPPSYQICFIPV
As to the kind of experiment: CYP inhibition, human liver microsomes. It counts as in vitro ADME. As to conditions: probe paclitaxel and amodiaquine, substrates paclitaxel and amodiaquine, read-out: CYP2C8 Inh %.

The next data set has as its target T7, CYP2C9 (Homo sapiens, UniProt P11712).
T7 construct: tissue Eurofins protocol ITEMG232; host or cells: human liver microsomes
The data set is described as follows: CYP inhibition, human liver microsomes. It counts as in vitro ADME. Particulars: probe diclofenac; 10 μM, substrate diclofenac, human liver microsomes; read-out: CYP2C9 Inh %.

The target of the next data set is T8, CYP2D6 (Homo sapiens, UniProt P10635).
T8 construct: tissue Eurofins protocol ITEMG232; host or cells: human liver microsomes
As to the kind of experiment: CYP inhibition, human liver microsomes. It counts as in vitro ADME. As to conditions: probe dextromethorphan, substrate dextromethorphan, read-out: CYP2D6 Inh %.

The next data set deals with T9, CYP3A4 (Homo sapiens, UniProt P08684).
T9 construct: tissue Eurofins protocol ITEMG232; host or cells: human liver microsomes
The data set is described as follows: CYP inhibition, human liver microsomes. It counts as in vitro ADME. Particulars: probe midazolam; 10 μM, substrate midazolam, human liver microsomes; read-out: CYP3A4 midazolam Inh %.

Another data set concerns CYP3A4&5. The data set is described as follows: CYP inhibition, human liver microsomes. Particulars: probe testosterone, substrate testosterone, read-out: CYP3A4&5 testosterone Inh %. It is filed as in vitro ADME.

T7 sequence (P11712 whole entry): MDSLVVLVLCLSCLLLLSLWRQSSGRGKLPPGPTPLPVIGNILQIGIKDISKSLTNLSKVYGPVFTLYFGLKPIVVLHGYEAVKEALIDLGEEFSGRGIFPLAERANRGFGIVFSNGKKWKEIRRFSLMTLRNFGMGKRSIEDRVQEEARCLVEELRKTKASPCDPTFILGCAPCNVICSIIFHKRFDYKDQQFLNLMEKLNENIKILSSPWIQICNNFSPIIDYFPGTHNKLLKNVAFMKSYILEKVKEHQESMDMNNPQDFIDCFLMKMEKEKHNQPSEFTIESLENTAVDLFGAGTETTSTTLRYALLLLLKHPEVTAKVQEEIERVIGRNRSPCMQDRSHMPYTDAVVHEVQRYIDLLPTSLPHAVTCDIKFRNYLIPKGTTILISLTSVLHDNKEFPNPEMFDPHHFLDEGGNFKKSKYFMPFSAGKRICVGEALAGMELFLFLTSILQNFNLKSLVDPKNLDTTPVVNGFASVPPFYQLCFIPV
T5 sequence (P33261 whole entry): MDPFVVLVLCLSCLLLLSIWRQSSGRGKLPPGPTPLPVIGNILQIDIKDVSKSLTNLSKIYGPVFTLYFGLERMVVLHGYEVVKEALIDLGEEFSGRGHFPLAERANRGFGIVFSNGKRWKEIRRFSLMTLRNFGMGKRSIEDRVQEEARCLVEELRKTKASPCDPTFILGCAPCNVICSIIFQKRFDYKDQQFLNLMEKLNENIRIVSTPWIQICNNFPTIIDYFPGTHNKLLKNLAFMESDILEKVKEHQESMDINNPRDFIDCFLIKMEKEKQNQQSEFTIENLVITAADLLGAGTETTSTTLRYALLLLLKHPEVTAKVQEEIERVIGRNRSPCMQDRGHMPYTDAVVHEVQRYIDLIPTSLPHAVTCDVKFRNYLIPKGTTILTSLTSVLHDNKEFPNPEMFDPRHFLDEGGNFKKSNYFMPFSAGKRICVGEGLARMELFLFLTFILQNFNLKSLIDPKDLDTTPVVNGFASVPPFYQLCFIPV
T8 sequence (P10635 whole entry): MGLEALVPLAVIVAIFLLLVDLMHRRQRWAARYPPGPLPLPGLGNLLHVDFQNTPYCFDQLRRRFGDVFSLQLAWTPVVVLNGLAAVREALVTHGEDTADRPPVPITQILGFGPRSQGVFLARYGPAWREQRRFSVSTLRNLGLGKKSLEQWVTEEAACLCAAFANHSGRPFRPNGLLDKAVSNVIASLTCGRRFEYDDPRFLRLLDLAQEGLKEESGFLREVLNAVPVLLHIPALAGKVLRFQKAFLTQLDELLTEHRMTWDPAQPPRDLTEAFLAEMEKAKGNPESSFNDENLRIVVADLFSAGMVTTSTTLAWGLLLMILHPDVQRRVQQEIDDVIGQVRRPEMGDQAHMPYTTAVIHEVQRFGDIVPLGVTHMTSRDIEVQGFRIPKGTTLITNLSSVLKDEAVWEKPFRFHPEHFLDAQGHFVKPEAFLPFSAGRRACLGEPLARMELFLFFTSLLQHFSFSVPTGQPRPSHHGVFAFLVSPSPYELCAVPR
T9 sequence (P08684 whole entry): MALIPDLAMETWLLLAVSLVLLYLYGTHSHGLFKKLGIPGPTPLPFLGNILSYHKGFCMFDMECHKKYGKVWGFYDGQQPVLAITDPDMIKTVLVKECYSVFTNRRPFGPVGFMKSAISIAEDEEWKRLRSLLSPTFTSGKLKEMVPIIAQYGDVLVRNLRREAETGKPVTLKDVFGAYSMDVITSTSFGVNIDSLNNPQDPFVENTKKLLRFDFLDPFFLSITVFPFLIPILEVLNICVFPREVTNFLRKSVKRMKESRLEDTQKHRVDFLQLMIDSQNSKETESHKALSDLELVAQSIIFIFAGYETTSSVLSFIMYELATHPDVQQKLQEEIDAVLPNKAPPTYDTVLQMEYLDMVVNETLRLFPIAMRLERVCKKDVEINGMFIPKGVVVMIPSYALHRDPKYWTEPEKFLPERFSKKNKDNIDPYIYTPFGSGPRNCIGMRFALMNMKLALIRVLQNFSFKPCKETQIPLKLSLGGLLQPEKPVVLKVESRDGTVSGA

Regarding `CC(C)Cc1cc(-c2ccc(Cn3ccnc3C(C)(C)C)c(F)c2)c(S(=O)(=O)NC(=O)NCc2cccs2)s1` [Example 7, 1-[[3-[4-[(2-Tert-butylimidazol-1-yl)methyl]-3-fluoro-phenyl]-5-isobutyl-2-thienyl]sulfonyl]-3-(2-thienylmethyl)urea], the half-life at 1 μM in data set [1] (with 1 mM NADPH, read-out: T1/2, + NaDPH) is 23 min; in data set [1] (without NADPH, read-out: T1/2, no NaDPH), over 60 min. Moreover, the IC50 in data set [2] came out at 5 nM; in data set [3], 3100 nM. The inhibition at 10 µM on CYP1A turned out to be 20.7%; at CYP2B6 it was 50.5%; on CYP2C19, 49.1%; at CYP2C8 it was 79.9%; at CYP2C9, 76.3%; on CYP2D6, 13.8%. The inhibition at 10 µM at CYP3A4 was 52.3%; in the data set with CYP3A4&5, 16.7%.

As a reminder, the IC50 is the midpoint of a concentration-inhibition curve.
